Test results reported in publication PMC3445454, “Broad and Cross-Clade CD4^+ T-Cell Responses Elicited by a DNA Vaccine Encoding Highly Conserved and Promiscuous HIV-1 M-Group Consensus Peptides” (PLoS ONE, 2012).
Residue numbers refer to the chain shown, from its start. Read-outs that look alike come from different tables or passages of the source. Ends that are not written are not given here.

Columns and labels:
Assay in all cases: biochemical
HLA-DR DRB1*15:01 = HLA-DR DRB1*15:01 (Homo sapiens, UniProt P01903+P01911); format: binding
HLA-DR DRB3*01:01 = HLA-DR DRB3*01:01 (Homo sapiens, UniProt P01903+P79483); format: binding
HLA-DR DRB3*02:02 = HLA-DR DRB3*02:02 (Homo sapiens, UniProt P01903+P79483, A212P/D57E/F66Y/L67A/R103Q/R218S/R40L/S89Y/T80R/V86D/Y55F/Y59H); format: binding
HLA-DR DRB4*01:01 = HLA-DR DRB4*01:01 (Homo sapiens, UniProt P01903+P13762, G164S); format: binding
HLA-DR DRB5*01:01 = HLA-DR DRB5*01:01 (Homo sapiens, UniProt P01903+Q30154); format: binding
[1] = molecular target: T1, HLA-DP DPA1*01:03/DPB1*03:01 (Homo sapiens, UniProt P04440+P20036, A65V/A84D/A85E/E86D/F38Y/G113D/G114E/G40L/I94L/L37V/M105V/M116V/P115A/R125K/T199I); format: binding
T1 sequence (P20036 29-260): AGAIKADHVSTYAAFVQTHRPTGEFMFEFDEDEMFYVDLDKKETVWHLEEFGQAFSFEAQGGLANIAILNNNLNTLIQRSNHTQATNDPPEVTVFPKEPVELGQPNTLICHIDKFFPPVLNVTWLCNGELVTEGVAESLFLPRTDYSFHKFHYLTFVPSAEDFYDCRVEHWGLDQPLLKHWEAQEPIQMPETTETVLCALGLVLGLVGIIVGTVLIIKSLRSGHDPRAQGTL
T1 sequence (P04440 30-258 L37V/F38Y/G40L/A65V/A84D/A85E/E86D/I94L/M105V/G113D/G114E/P115A/M116V/R125K/T199I): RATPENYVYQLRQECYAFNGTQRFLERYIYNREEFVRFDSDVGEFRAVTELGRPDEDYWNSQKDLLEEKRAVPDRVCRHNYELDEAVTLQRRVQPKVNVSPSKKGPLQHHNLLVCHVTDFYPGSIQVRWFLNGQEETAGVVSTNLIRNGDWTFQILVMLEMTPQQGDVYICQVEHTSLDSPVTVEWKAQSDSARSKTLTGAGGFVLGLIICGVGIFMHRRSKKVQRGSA

[2] = molecular target: T2, HLA-DP DPA1*01:03/DPB1*04:01 (Homo sapiens, UniProt P04440+P20036); format: binding
T2 sequence (P20036 29-260): T1 sequence (P20036 29-260)
T2 sequence (P04440 30-258): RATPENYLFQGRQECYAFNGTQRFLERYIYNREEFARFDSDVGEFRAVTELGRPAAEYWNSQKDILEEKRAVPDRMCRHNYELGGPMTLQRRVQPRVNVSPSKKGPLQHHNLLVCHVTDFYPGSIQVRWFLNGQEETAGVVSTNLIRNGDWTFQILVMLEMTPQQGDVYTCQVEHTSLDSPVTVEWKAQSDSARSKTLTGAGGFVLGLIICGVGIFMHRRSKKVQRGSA

[3] = molecular target: T3, HLA-DP DPA1*02:01/DPB1*05:01 (Homo sapiens, UniProt P04440+P20036, A65V/A84E/F191V/F64L/G113D/G114E/K142R/L158P/M116V/M62Q/P115A/Q81R/R125K/T114A/T199I/T259P/V234M); format: binding
T3 sequence (P20036 29-260 A42M/M62Q/Q81R/T114A/K142R/L158P/F191V/T259P): T1 sequence (P20036 29-260) with A14M, M34Q, Q53R, T86A, K114R, L130P, F163V, T231P
T3 sequence (P04440 30-258 F64L/A65V/A84E/G113D/G114E/P115A/M116V/R125K/T199I/V234M): T2 sequence (P04440 30-258) with F35L, A36V, A55E, G84D, G85E, P86A, M87V, R96K, T170I, V205M

[4] = molecular target: T4, HLA-DP DPA1*02:01/DPB1*14:01 (Homo sapiens, UniProt P04440+P20036, A65V/A84D/A85E/E86D/F191V/F38H/G113D/G114E/G40L/I94L/K142R/L158P/L37V/M105V/M116V/M62Q/P115A/Q81R/R125K/T114A/T199I/T259P); format: binding
T4 sequence (P20036 29-260 A42M/M62Q/Q81R/T114A/K142R/L158P/F191V/T259P): T1 sequence (P20036 29-260) with A14M, M34Q, Q53R, T86A, K114R, L130P, F163V, T231P
T4 sequence (P04440 30-258 L37V/F38H/G40L/A65V/A84D/A85E/E86D/I94L/M105V/G113D/G114E/P115A/M116V/R125K/T199I/R223Q): T1 sequence (P04440 30-258 L37V/F38Y/G40L/A65V/A84D/A85E/E86D/I94L/M105V/G113D/G114E/P115A/M116V/R125K/T199I) with Y9H, R194Q

[5] = molecular target: HLA-DP DPA1*02:01/DPB1*01:01 (Homo sapiens, UniProt P04440+P20036, F191V/F38Y/F64Y/G113D/G114E/K142R/L158P/L37V/M105V/M116V/M62Q/P115A/Q81R/R125K/R223Q/T114A/T199I/T259P)
Chain of HLA-DP DPA1*02:01/DPB1*01:01 (P20036 29-260 A42M/M62Q/Q81R/T114A/K142R/L158P/F191V/T259P, other chains not shown): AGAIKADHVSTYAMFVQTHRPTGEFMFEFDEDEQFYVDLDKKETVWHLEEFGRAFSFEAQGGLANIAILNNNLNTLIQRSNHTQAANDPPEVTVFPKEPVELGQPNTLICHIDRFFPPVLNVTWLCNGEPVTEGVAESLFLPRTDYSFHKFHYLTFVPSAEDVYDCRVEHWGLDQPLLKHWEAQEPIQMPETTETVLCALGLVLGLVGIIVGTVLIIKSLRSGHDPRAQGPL

[6] = molecular target: HLA-DP DPA1*03:01/DPB1*04:02 (Homo sapiens, UniProt P04440+P20036, A42M/A65V/A84D/A85E/L207M/L97S)
HLA-DR DRB1*16:02 = HLA-DR DRB1*16:02 (Homo sapiens, UniProt P01903+P01911, A100R/F76Y/I96L/Q99D/V115G); format: binding
[7] = read-out: Binding capacity/IC50 (nM) DRB3*02:02
[8] = read-out: Binding capacity/IC50 (nM) DRB4*01:01
[9] = read-out: Binding capacity/IC50 (nM) DRB5*01:01
[10] = read-out: Binding capacity/IC50 (nM) DPA1*01:03 DPB1*04:01
[11] = read-out: Binding capacity/IC50 (nM) DPA1*02:01 DPB1*05:01
[12] = read-out: Binding capacity/IC50 (nM) DRB1*15:01
[13] = read-out: Binding capacity/IC50 (nM) DRB1*16:02
[14] = read-out: Binding capacity/IC50 (nM) DRB3*01:01
[15] = read-out: Binding capacity/IC50 (nM) DPA1*01:03 DPB1*03:01
[16] = read-out: Binding capacity/IC50 (nM) DPA1*02:01 DPB1*14:01

Compound | IC50 (HLA-DR DRB3*02:02; [7]) | IC50 (HLA-DR DRB4*01:01; [8]) | IC50 (HLA-DR DRB5*01:01; [9]) | IC50 [1] | IC50 [2, 10] | IC50 [3, 11] | IC50 [4] | IC50 [5] | IC50 [6] | IC50 (HLA-DR DRB1*15:01; [12]) | IC50 (HLA-DR DRB1*16:02; [13]) | IC50 (HLA-DR DRB3*01:01; [14]) | IC50 [1, 15] | IC50 [4, 16] | further results
CC[C@H](C)[C@H](NC(=O)CNC(=O)[C@H](CCCCN)NC(=O)[C@H](Cc1c[nH]cn1)NC(=O)[C@H](C)NC(=O)[C@@H]1CCCN1C(=O)[C@@H](NC(=O)[C@H](Cc1c[nH]c2ccccc12)NC(=O)[C@H](CO)NC(=O)[C@H](CC(C)C)NC(=O)[C@H](Cc1ccc(O)cc1)NC(=O)[C@@H](NC(=O)[C@H](CCCCN)NC(=O)[C@H](CCC(=O)O)NC(=O)[C@@H](N)CCCCN)C(C)C)C(C)C)C(=O)NCC(=O)NCC(=O)N[C@@H](CC(N)=O)C(=O)N[C@@H](CCC(=O)O)C(N)=O [RT(528-546)] | 82 nM | 57 nM | 16 nM | 76 nM | 1390 nM | 3560 nM | 4850 nM | 585 nM | 150 nM | – | – | – | – | – | IC50 (HLA-DR DRB1*15:01): 97 nM; IC50 (HLA-DR DRB3*01:01): 576 nM
CC[C@H](C)[C@H](NC(=O)[C@@H]1CCCN1C(=O)[C@H](CCC(=O)O)NC(=O)[C@@H](N)CCCCN)C(=O)N[C@H](C(=O)NCC(=O)N[C@@H](C)C(=O)N[C@@H](CCC(=O)O)C(=O)N[C@H](C(=O)N[C@@H](Cc1ccccc1)C(=O)N[C@@H](Cc1ccc(O)cc1)C(=O)N[C@H](C(=O)N[C@@H](CC(=O)O)C(=O)NCC(=O)N[C@@H](C)C(N)=O)C(C)C)[C@@H](C)O)C(C)C [RT(431-445)] | – | 243 nM | 148 nM | 28400 nM | – | > 30000 nM | 1350 nM | 205 nM | 132 nM | 230 nM | 80 nM | – | – | – | IC50 (HLA-DR DRB3*01:01): 13 nM; IC50 (HLA-DR DRB3*02:02): 611 nM; IC50 [2]: 4660 nM
CC[C@H](C)[C@H](NC(=O)[C@H](Cc1ccc(O)cc1)NC(=O)CNC(=O)[C@H](CO)NC(=O)[C@H](C)NC(=O)[C@@H](NC(=O)[C@H](Cc1c[nH]cn1)NC(=O)[C@@H](NC(=O)[C@H](C)NC(=O)[C@@H](NC(=O)[C@H](CC(C)C)NC(=O)[C@@H](NC(=O)[C@@H](NC(=O)[C@H](CCCCN)NC(=O)CNC(=O)[C@@H](N)CCC(=O)O)[C@@H](C)CC)[C@@H](C)CC)C(C)C)C(C)C)C(C)C)C(=O)N[C@@H](CCC(=O)O)C(N)=O [integrase(69-85)] | 7190 nM | – | 523 nM | – | 2830 nM | 2710 nM | – | 5930 nM | 212 nM | 146 nM | 167 nM | 624 nM | 1990 nM | 1370 nM | IC50 (HLA-DR DRB4*01:01): 56 nM
YAKMRSAHTNDVKQL-NH2 [RT(354-368)] | 2850 nM | 1440 nM | 80 nM | 11900 nM | 3550 nM | 2190 nM | 919 nM | 4430 nM | 6960 nM | 773 nM | 58 nM | – | – | – | –
NYPIVQNLQGQMVHQAISPR-NH2 [p17(131-132)/p24(1-18)] | 2880 nM | 131 nM | – | – | 1550 nM | – | – | 2870 nM | 484 nM | 211 nM | 68 nM | – | 344 nM | 2990 nM | IC50 (HLA-DR DRB3*01:01): 517 nM; IC50 [3]: 2520 nM
LNKIVRMYSPVSILDI-NH2 [p24(138-153)] | – | 25 nM | – | – | – | 220 nM | – | 26 nM | 1 nM | – | – | – | 16 nM | 16 nM | IC50 [2]: 47 nM
CC(C)C[C@H](NC(=O)[C@H](CCCCN)NC(=O)[C@@H](NC(=O)[C@H](CC(C)C)NC(=O)[C@@H]1CCCN1C(=O)[C@@H]1CCCN1C(=O)[C@@H](NC(=O)[C@H](CC(N)=O)NC(=O)[C@@H](NC(=O)[C@H](Cc1ccccc1)NC(=O)[C@H](CCC(=O)O)NC(=O)[C@H](Cc1c[nH]c2ccccc12)NC(=O)[C@@H](N)CCC(=O)O)C(C)C)[C@@H](C)O)C(C)C)C(=O)N[C@@H](Cc1c[nH]c2ccccc12)C(=O)N[C@@H](Cc1ccc(O)cc1)C(N)=O [RT(413-427)] | 4.4 nM | 1420 nM | 14 nM | – | 846 nM | 2820 nM | – | 101 nM | 7 nM | 329 nM | – | 2390 nM | 5710 nM | 1200 nM | IC50 (HLA-DR DRB1*16:02): 10 nM
IRYPLTFGWCFKLVPVDPREVEEA-NH2 [nef(133-156)] | > 30000 nM | 1640 nM | – | – | 44 nM | 4780 nM | – | 249 nM | 670 nM | – | 2740 nM | 3440 nM | 5360 nM | 15900 nM | IC50 (HLA-DR DRB1*15:01): 718 nM; IC50 (HLA-DR DRB5*01:01): 317 nM
IVALIIAIVVWTIV-NH2 [vpu(13-26)] | – | – | > 30000 nM | – | > 30000 nM | > 30000 nM | – | 26100 nM | 1300 nM | 2030 nM | 4360 nM | – | 2580 nM | > 30000 nM | IC50 (HLA-DR DRB3*02:02): > 30000 nM
DEELLKAVRIIKILYQSNP-NH2 [rev(9-27)] | 4.4 nM | – | – | – | – | 370 nM | – | 461 nM | 5.8 nM | – | 74 nM | 978 nM | 466 nM | 710 nM | IC50 [2]: 637 nM
VGSLQYLALTALITPKK-NH2 [vif(142-158)] | – | – | – | 74 nM | 33 nM | 20 nM | 71 nM | 115 nM | 1.5 nM | 3.8 nM | – | 942 nM | – | – | IC50 (HLA-DR DRB3*02:02): 577 nM; IC50 (HLA-DR DRB4*01:01): 78 nM; IC50 (HLA-DR DRB5*01:01): 2.4 nM
